The values below come from patent publication US11851381B2, “Application of farnesene in preparing plant-derived urease inhibitor” (priority 2022, dated 2023).

In assay [1] the test system is soil urease-generating bacteria. Kind of assay: Inhibition of soil urease-generating bacteria (bacterial ureC gene copy number by quantitative PCR). The note with it: urea 200 mg N kg^-1 dry soil, farnesene 0.5%, 2% of pure nitrogen. On the procedure:
(1) Pre-culture of soil: air-dried soil (brown soil) is filtered by a 2 mm sieve and then placed in a culture dish, distilled water accounting for 15% of the weight of the dried soil is added, after the dried soil is uniformly and thoroughly immersed with water, the soil is pre-cultured for 2 weeks in a constant temperature incubator at 25° C. to restore the biological activity of the soil, and ventilation and constant moisture are kept in the pre-culture period, thereby obtaining the pre-cultured soil.
(2) The pre-cultured soil is weighed; urea is added according to a concentration of 200 mg N kg^−1 of dry soil; the farnesene is added according to concentrations of pure nitrogen of 0 (U), 0.5% (U+0.5%), 1% (U+1%) and 2% (U+2%); and at the same time, the pre-cultured soil without urea and farnescene is used as control treatment, and 5 treatments are carried out and repeated for 4 times. In each treatment, the required urea and farnesene are dissolved in a certain amount of deionized water according to a required amount, then the solution is uniformly mixed with the pre-cultured soil that is equivalent to 50 g of air-dried soil by a vacuum method, the water content of the soil is enabled to reach 60% of the field water holding capacity (WHC), and finally the solution is placed in a 150 mL centrifugal pipe with a cover. […]

For assay [2], the target named is T1, Canavalia ensiformis urease (Canavalia ensiformis, UniProt P07374).
T1 construct: purchased Aladdin Company
The class given is biochemical. The note with it: incubated 20 min at 37° C., HEPES pH 7.5; unit inferred; read-out: median inhibitory concentration (IC50) for inhibiting the activity of Canavalia ensiformis urease.
Method: Acetohydroxamic acid is weighed, and mixed with 20 mM of HEPES buffer solution (with pH of 7.5) to prepare an acetohydroxamic acid solution of 0.1 μM, 0.5 μM, 1 μM, 3 μM, 5 μM, 10 μM, 20 μM, 40 μM, 60 μM and 80 μM, and the solution is cold stored in a brown bottle in a refrigerator at 4° C. for standby use;
Canavalia ensiformis urease is weighed, and dissolved in 20 mM of HEPES buffer solution (with pH of 7.5) to prepare the Canavalia ensiformis urease solution with a concentration of 10 U/mL, and the prepared solution is cold stored in the refrigerator at 4° C. for standby use. […]
A. 50 μL of the above prepared farnesene solution with different concentrations is collected, added with 100 μL of Canavalia ensiformis urease solution respectively, and uniformly mixed to obtain mixed solutions, and the mixed solutions are incubated for 20 min at 37° C.; 100 μL of urea solution is added for light avoidance reaction for 20 min at a room temperature; the Berthelot developing solution A is added and uniformly mixed, and the Berthelot developing solution B is added for development for 10 min to obtain an incubation solution; and 250 μL of incubation solution is absorbed onto a 96-well plate, an OD absolute value at 595 nm is determined by a microplate reader, and three times of test are carried in parallel for each concentration. […]

The subject of another assay is soil urease. Briefly: Inhibition of soil urease activity in incubated brown soil. The class given is biochemical. The method, then: (1) Pre-culture of soil: air-dried soil (brown soil) is filtered by a 2 mm sieve and then placed in a culture dish, distilled water accounting for 15% of the weight of the dried soil is added, after the dried soil is uniformly and thoroughly immersed with water, the soil is pre-cultured for 2 weeks in a constant temperature incubator at a constant temperature of 25° C. to restore the biological activity of the soil, and ventilation and constant moisture are kept in the pre-culture period.
(2) The pre-cultured soil is weighed, and added with DMSO solutions of farnesene and acetohydroxamic acid respectively, the concentrations of the farnesene and acetohydroxamic acid are 50 mg/kg (calculated by the dried soil) respectively, and a farnesene-soil mixture and an acetohydroxamic acid-soil mixture are obtained. 5 g of farnesece-soil mixture and 5 g of acetohydroxamic acid-soil mixture are weighed respectively and placed into glass test tubes (length 15 cm×diameter 15 mm), then 5 mL of distilled water is added respectively into the test tubes to make the soil located below a liquid surface, the mixtures in the test tubes are shaken by a vortex shaker and uniformly mixed; and at the same time, the pre-cultured soil without the inhibitor is used as control treatment (CK) and cultured in the constant temperature incubator at a constant temperature of 25° C., and sampling is carried out respectively on the 1st day, the 7th day, 14th day and 28th day after the culture (water is supplemented every day according to a weight method so as to keep a total weight of the test tube constant) for determination of urease activity. […]

A further assay has as its system corns. Briefly: Pot experiment: combined application of farnesene and urea on growth of corns. The assay is classed as in vivo, corn. The conditions noted are these: potted corns; for Increase of dry weight / Yield increase: versus control without farnesene. The text has this:
Soil required for pot experiment is brown soil collected from Shenyang. 13 g of nitrogen phosphorus potassium fertilizer is used as base fertilizer to be applied in all layers according to a ratio of 26-10-12; and the fertilizer with farnescene and the fertilizer without farnescene are used as control, and the application amount is 0.5%, 1% and 5% of a pure nitrogen content in the fertilizer. Nitrogen fertilizer for test is urea, phosphorus fertilizer is calcium superphosphate, and potassium fertilizer is potassium sulfate. Each treatment is repeated for 5 times. The pretreated soil (filtered by a 5 mm sieve to remove stone pieces, roots, etc.) that is equivalent to 16 kg of air-dried oil is laid on square thick plastic paper with an edge length of 2 m, then the required fertilizer and inhibitor (if necessary) that are uniformly mixed in advance are applied uniformly to the soil, the paper is folded for multiple times by a diagonal folding method, in this period, it is necessary to lay the soil on the paper and then fold the paper, finally the soil is sufficiently and uniformly mixed with the fertilizer and inhibitor, the obtained mixture is transferred into a plastic pot (with a diameter of 28 cm and a height of 34 cm), and finally irrigation is carried out to make the water content of the soil reach 60% of the maximal field water holding capacity. Finally, a height about 5 cm is reserved between the soil surface and the top end of the pot. Three corn seeds are sowed in each pot in a sowing depth of 5 cm, and after the emergence (about 15 days), thinning is carried out to make each pot have one corn. Finally, all potted corns are carried onto a four-wheeled platform lorry and finally transferred into a net house. When in rainy days, the potted corns are transferred into a shed. The corns are watered manually every day in a growth period so as to maintain the soil moisture. The planting density is about 4000 corns per Mu, and a dry weight and yield of the corn are determined in autumn.

The mark [3] stands for this setting: farnesene 0.5% of pure nitrogen content in the fertilizer.
Where [4] appears, read: farnesene 0.5% of pure nitrogen content.
The mark [5] stands for this setting: farnesene 1% of pure nitrogen content in the fertilizer.
Where [6] appears, read: farnesene 1% of pure nitrogen content.
Setting [7] is: farnesene 5% of pure nitrogen content in the fertilizer.
Setting [8] is: farnesene 5% of pure nitrogen content.

T1 sequence (P07374 whole entry, looked up): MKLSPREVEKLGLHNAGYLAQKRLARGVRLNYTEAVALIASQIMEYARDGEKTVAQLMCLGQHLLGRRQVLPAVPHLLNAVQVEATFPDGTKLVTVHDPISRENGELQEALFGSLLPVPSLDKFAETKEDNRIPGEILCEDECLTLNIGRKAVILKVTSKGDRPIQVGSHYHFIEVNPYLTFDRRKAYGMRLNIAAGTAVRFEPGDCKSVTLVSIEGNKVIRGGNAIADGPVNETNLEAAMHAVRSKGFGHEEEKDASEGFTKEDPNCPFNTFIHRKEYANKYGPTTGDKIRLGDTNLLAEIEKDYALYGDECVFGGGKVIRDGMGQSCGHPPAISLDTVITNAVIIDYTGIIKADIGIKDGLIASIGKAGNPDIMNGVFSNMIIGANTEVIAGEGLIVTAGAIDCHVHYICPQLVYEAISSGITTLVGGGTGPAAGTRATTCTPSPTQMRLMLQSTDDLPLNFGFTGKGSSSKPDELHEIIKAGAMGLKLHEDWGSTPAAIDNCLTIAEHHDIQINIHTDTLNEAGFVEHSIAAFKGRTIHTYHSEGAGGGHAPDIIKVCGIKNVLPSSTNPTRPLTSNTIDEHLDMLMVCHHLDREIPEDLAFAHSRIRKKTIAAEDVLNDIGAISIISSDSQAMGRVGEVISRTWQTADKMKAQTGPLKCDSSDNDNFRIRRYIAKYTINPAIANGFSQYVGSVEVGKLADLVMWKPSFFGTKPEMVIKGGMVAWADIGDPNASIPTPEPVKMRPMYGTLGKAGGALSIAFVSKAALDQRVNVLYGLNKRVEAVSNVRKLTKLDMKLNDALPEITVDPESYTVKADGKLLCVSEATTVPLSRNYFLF

Take farnesene: in assay [1], the “duration of the inhibition effect on urease-generating bacteria” value was found to be 14 days. Further, the “inhibition of the proliferation of urease-generating bacteria (copy number of bacterial ureC genes)” value in assay [1] (25° C.) was “can effectively inhibit the proliferation of the urease-generating bacteria”. For the same substance, in assay [2], the IC50 was 10.3 ± 0.25 µM. Further, the “duration of the inhibition effect on soil urease” value in the assay with soil urease (50 mg/kg dried soil, brown soil, 25° C.) is 14 days. In addition, the “inhibition of the activity of soil urease” value with soil urease (50 mg/kg dried soil, brown soil, 25° C., sampled day 1, 7, 14, 28) is given as “can effectively inhibit the activity of soil urease”. The “inhibition effect on soil urease compared with acetohydroxamic acid” value with soil urease (both at 50 mg/kg dried soil) is given as “equivalent to that of the commercial inhibitor acetohydroxamic acid”. Besides, the Dry weight in the assay on corns (setting [3]) stood at 16006.3 kg ha^−1; in the assay with corns (setting [5]), 16922.8 kg ha^−1; in the assay with corns (setting [7]), 17371.5 kg ha^−1. Moreover, the Yield in the assay with corns (setting [3]) came out at 8004.2 kg ha^−1; in the assay on corns (setting [5]) it was 8521.3 kg ha^−1; in the assay on corns (setting [7]), 8714.3 kg ha^−1. Besides, the “Increase of dry weight” value in the assay on corns (setting [4]) was determined as 4.1%; in the assay on corns (setting [6]) it was 8.6%; in the assay with corns (setting [8]), 10.2%. The Yield increase came out at 4.5% in the assay on corns (setting [4]), 10.1% with corns (setting [6]) and 12.2% with corns (setting [8]).
